The text below walks through data of patent publication US20260199351A1, “TRIAZOLE COMPOUNDS, PREPARATION METHODS AND MEDICINAL USES THEREOF” (Jiangsu Hengrui Pharmaceuticals Co., Ltd., priority 2022, published 2026).

For test [1], the target named is T1, WRN helicase (His-WRN527-072) (Homo sapiens, UniProt Q14191).
T1 construct: in-house produced His-WRN527-072 was used; His (N); made in house
Put plainly: WRN Helicase Assay (fluorescent forked DNA). The format is biochemical. The note with it: 30 min pre-incubation, 60 min reaction at room temperature. Here is the method:
To assess the inhibition properties of the invented compounds on WRN helicase activity, a fluorescent assay using forked DNA was set up. In the helicase assay, in-house produced His-WRN527-072 was used. […] 2.5-fold serial dilution of test compounds were prepared for 7 gradient points with DMSO, and then 1.5 μl of each concentration were added to 48.5 μl of assay buffer (25 mM Tris-HCl (pH 8.0), 50 mM NaCl, 2 mM MgCl2, 1 mM DTT, 0.0500 Tween-20, and 2.5 μg/ml BSA) for further dilution. […] Each concentration of the compounds was added as triplicate in the plate. Controls were included in the test to validate the assay. […] Forked DNA and ATP were diluted into 300 nM and 6 mM, respectively, with assay buffer. To initiate the reaction, 5 μl of the dsDNA and ATP solution were added to the assay plate. After 60 minutes room temperature incubation, the plate was transferred to Victor Nivo multimode plate reader (Perkin Elmer, Waltham, MA) and the fluorescence outputs were monitored. GraphPad Prism 9 (GraphPad Software, San Diego, CA) was used to carry out the dose-response curves, deriving IC50s.

The test system of another test is SW48. Put plainly: SW48 cell assay. The note with it: Homo sapiens. The class given is cell-based.

The structures appear in SMILES notation.

T1 sequence (Q14191 527-1072 limits assumed): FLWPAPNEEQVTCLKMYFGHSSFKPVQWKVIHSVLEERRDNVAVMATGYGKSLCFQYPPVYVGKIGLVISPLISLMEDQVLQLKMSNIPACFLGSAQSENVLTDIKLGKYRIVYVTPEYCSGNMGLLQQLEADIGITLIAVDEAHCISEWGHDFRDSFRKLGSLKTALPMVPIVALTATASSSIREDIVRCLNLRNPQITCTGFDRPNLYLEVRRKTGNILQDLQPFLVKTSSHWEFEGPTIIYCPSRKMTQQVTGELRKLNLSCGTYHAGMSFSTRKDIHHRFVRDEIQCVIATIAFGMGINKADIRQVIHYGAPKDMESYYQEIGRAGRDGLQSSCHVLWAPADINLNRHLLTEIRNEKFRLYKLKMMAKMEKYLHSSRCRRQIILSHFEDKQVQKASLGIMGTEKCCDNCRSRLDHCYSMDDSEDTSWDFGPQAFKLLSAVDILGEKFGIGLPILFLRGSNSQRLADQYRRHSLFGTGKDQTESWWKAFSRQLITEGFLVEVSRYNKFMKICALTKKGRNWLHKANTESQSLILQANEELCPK

With `CCc1c(N2CC3CCC(C2)N3C(=O)c2ncccc2O)c(=O)n2nc(C3=CCOCC3)nc2n1CC(=O)Nc1ccc(C(F)(F)F)nc1Cl` [Compound 8], the results for the 50% inhibitory concentration (IC50) (in test [1]; with SW48) were 5.9 nM and 1630 nM, respectively. In the case of `CCc1c(N2CCN(C(=O)c3ncnc(C)c3O)CC2)c(=O)n2nc(C3C4COCC43)nc2n1CC(=O)Nc1ccc(C(F)(F)F)cc1Cl` (centres unmarked) [Compound 192, 2-(2-(3-oxabicyclo[3.1.0]hexan-6-yl)-5-ethyl-6-(4-(5-hydroxy-6-methylpyrimidine-4-carbonyl)piperazin-1-yl)-7-oxo-[1,2,4]triazolo[1,5-a]pyrimidin-4(7H)-yl)-N-(2-chloro-4-(trifluoromethyl)phenyl)acetamide], the 50% inhibitory concentration (IC50) was found to be 8.4 nM in test [1] and 4180 nM with SW48. For `CCc1c(N2CC3CCC(C2)N3C(=O)c2ncccc2O)c(=O)n2nc(C3=CCOCC3)nc2n1CC(=O)Nc1ccc(OC(F)(F)F)cc1` [Compound 200], in that order: 4.4 nM and 7240 nM. In the case of `CCc1c(N2CCCN(C(=O)c3ncnc(C)c3O)CC2)c(=O)n2nc(C3=CCOCC3)nc2n1CC(=O)Nc1ccc(C(F)(F)F)cc1Cl` [Compound 19], the IC50 in test [1] was found to be 5.1 nM; in the test on SW48, 818 nM. For the compound `CCc1c(N2CCN(Cc3cccn(C)c3=O)C(=O)C2)c(=O)n2nc(C3=CCOCC3)nc2n1CC(=O)Nc1ccc(C(F)(F)F)cc1C` [Compound 68], half-maximal inhibition in test [1] (IC50) required 5000 nM. For `CCc1c(N2CCC(NC(=O)c3ncnc(C)c3O)C2)c(=O)n2nc(C3=CCOCC3)nc2n1CC(=O)Nc1ccc(C(F)(F)F)cc1C` (centres unmarked) [Compound 23], the IC50 in test [1] was 6.3 nM; in the test on SW48, 1870 nM. In turn, `CCc1c(N2C3CC2CN(C(=O)c2ncnc(C)c2O)C3)c(=O)n2nc(C3=CCOCC3)nc2n1CC(=O)Nc1ccc(C(F)(F)F)cc1Cl` [Compound 1] returned an IC50 in test [1] of 48000 nM. In other words, the double-digit micromolar range. `CCc1c(N2CCN(C(=O)c3ncccc3O)CC2)c(=O)n2nc(C3=CCOCC3)nc2n1CC(=O)Nc1ccc(Cl)c(C(F)(F)F)c1` [Compound 197]: the IC50 in test [1] worked out at 3.8 nM; with SW48, 28 nM. For `CCc1c(N2CC3CCC(C2)N3C(=O)c2nccc(Cl)c2O)c(=O)n2nc(C3=CCOCC3)nc2n1CC(=O)Nc1ccc(C(F)(F)F)nc1Cl` [Compound 201], in that order: 7.3 nM and 802 nM. For `CCc1c(C2=CCN(C(=O)c3ncnc(C)c3O)CCC2)c(=O)n2nc(C3CCOCC3)nc2n1CC(=O)Nc1ccc(C(F)(F)F)cc1Cl` [Compound 196, N-(2-chloro-4-(trifluoromethyl)phenyl)-2-(5-ethyl-6-(1-(5-hydroxy-6-methylpyrimidine-4-carbonyl)-2,5,6,7-tetrahydro-1H-azepin-4-yl)-7-oxo-2-(tetrahydro-2H-pyran-4-yl)-[1,2,4]triazolo[1,5-a]pyrimidin-4(7H)-yl)acetamide], in test [1], the IC50 was 1280 nM. In the case of `CCc1c(N2CC3CCC(C2)N3C(=O)c2ncccc2O)c(=O)n2nc(C3=CCOCC3)nc2n1CC(=O)Nc1ccc(Cl)c(C(F)(F)F)c1` [Compound 199], the IC50 in test [1] was 9.3 nM; in the test on SW48, 3350 nM. Turning to `CCc1c(N2CC3CCC(C2)N3C(=O)c2ncccc2O)c(=O)n2nc(-c3cnn(C)c3)nc2n1CC(=O)Nc1ccc(C(F)(F)F)cc1C` [Compound 204], the results for the half-maximal inhibitory concentration (IC50) (in test [1]; in the test with SW48) were 7.1 nM and 1790 nM, respectively.

For the compound `CCc1c(N2C3CCC2CN(C(=O)c2ncccc2O)C3)c(=O)n2nc(C3=CCOCC3)nc2n1CC(=O)Nc1ccc(C(F)(F)F)cc1C` [Compound 206], the half-maximal inhibitory concentration (IC50) in test [1] was determined as 3.6 nM; in the test with SW48 it was 1140 nM. With `CCc1c(N2C3CCC2CN(C(=O)c2ncccc2O)C3)c(=O)n2nc(-c3cnn(C)c3)nc2n1CC(=O)Nc1ccc(C(F)(F)F)cc1C` [Compound 207], the 50% inhibitory concentration (IC50) in test [1] was 5.1 nM; in the test with SW48, 1140 nM. On to `CCc1c(N2CC3CCC(C2)N3C(=O)c2ncnc(C)c2O)c(=O)n2nc(C3=CCOCC3)nc2n1CC(=O)Nc1ccc(C(F)(F)F)nc1Cl` [Compound 15], for which the IC50 in test [1] is 9.2 nM; with SW48, 3490 nM. Consider `CCc1c(N2CC3CCC(C2)N3C(=O)c2ncccc2O)c(=O)n2nc(C3=CCN(CC(F)F)CC3)nc2n1CC(=O)Nc1ccc(C(F)(F)F)cc1C` [Compound 203, 2-(2-(1-(2,2-difluoroethyl)-1,2,3,6-tetrahydropyridin-4-yl)-5-ethyl-6-(8-(3-hydroxypicolinoyl)-3,8-diazabicyclo[3.2.1]octan-3-yl)-7-oxo-[1,2,4]triazolo[1,5-a]pyrimidin-4(7H)-yl)-N-(2-methyl-4-(trifluoromethyl)phenyl)acetamide], for which the concentration for half-maximal inhibition (IC50) in test [1] is 8.7 nM; with SW48 it was 967 nM. The matching figures for `CCc1c(N2CC3CCC(C2)N3C(=O)c2ncccc2O)c(=O)n2nc(C3=CCC(OC)CC3)nc2n1CC(=O)Nc1ccc(C(F)(F)F)cc1C` (centres unmarked) [Compound 202, 2-(5-ethyl-6-(8-(3-hydroxypicolinoyl)-3,8-diazabicyclo[3.2.1]octan-3-yl)-2-(4-methoxycyclohex-1-en-1-yl)-7-oxo-[1,2,4]triazolo[1,5-a]pyrimidin-4(7H)-yl)-N-(2-methyl-4-(trifluoromethyl)phenyl)acetamide]: 7 nM and 1040 nM. For `CCc1c(N2CC3CCC(C2)N3C(=O)c2ncccc2O)c(=O)n2nc(C3=CCOCC3)nc2n1CC(=O)Nc1ccc(C(F)(F)F)cc1Cl` [Compound 4], the IC50 turned out to be 4.5 nM in test [1] and 1350 nM in the test on SW48. The matching figures for `CCc1c(N2CC3CC(F)C(C2)N3C(=O)c2ncccc2O)c(=O)n2nc(C3=CCOCC3)nc2n1CC(=O)Nc1ccc(C(F)(F)F)cc1C` (centres unmarked) [Compound 205]: 10.9 nM and 2370 nM.

On to `CCc1c(N2CC3CC2CN3C(=O)c2ncnc(C)c2O)c(=O)n2nc(C3=CCOCC3)nc2n1CC(=O)Nc1ccc(C(F)(F)F)cc1Cl` (centres unmarked) [Compound 2], for which the values for the IC50 (in test [1]; in the test on SW48) were 6.4 nM and 5740 nM, respectively. The matching figures for `CCc1c(N2C3CCC2CN(C(=O)c2ncccc2O)C3)c(=O)n2nc(C3=CCOCC3)nc2n1CC(=O)Nc1ccc(C(F)(F)F)cc1Cl` [Compound 189, N-(2-chloro-4-(trifluoromethyl)phenyl)-2-(2-(3,6-dihydro-2H-pyran-4-yl)-5-ethyl-6-(3-(3-hydroxypicolinoyl)-3,8-diazabicyclo[3.2.1]octan-8-yl)-7-oxo-[1,2,4]triazolo[1,5-a]pyrimidin-4(7H)-yl)acetamide]: 4.6 nM and 1110 nM. Take `CCc1c(N2[C@@H]3CC[C@H]2CN(C(=O)c2ncnc(C)c2O)C3)c(=O)n2nc(C3=CCOCC3)nc2n1CC(=O)Nc1ccc(C(F)(F)F)cc1C` [Compound 17]: the IC50 in test [1] is 3.5 nM; in the test with SW48, 183 nM. For `CCc1c(N2CC3CC(C2)N3C(=O)c2ncnc(C)c2O)c(=O)n2nc(C3=CCOCC3)nc2n1CC(=O)Nc1ccc(C(F)(F)F)cc1C` [Compound 187, 2-(2-(3,6-dihydro-2H-pyran-4-yl)-5-ethyl-6-(6-(5-hydroxy-6-methylpyrimidine-4-carbonyl)-3,6-diazabicyclo[3.1.1]heptan-3-yl)-7-oxo-[1,2,4]triazolo [1,5-a]pyrimidin-4(7H)-yl)-N-(2-methyl-4-(trifluoromethyl)phenyl)acetamide], in that order: 8.6 nM and 4500 nM. The matching figures for `CCc1c(N2CCN(C(=O)c3ncccc3O)CC2)c(=O)n2nc(C3=CCOCC3)nc2n1CC(=O)Nc1ccc(OC(F)(F)F)cc1` [Compound 198]: 2.3 nM and 129 nM. For `CCc1c(N2C3CCC2CN(C(=O)c2ncnc(C)c2O)C3)c(=O)n2nc(-c3cnn(C)c3)nc2n1CC(=O)Nc1ccc(C(F)(F)F)cc1C` [Compound 208], in that order: 6.2 nM and 440 nM. Compound `CCc1c(N2CCN(C(=O)c3ncnc(C)c3O)CC2)c(=O)n2nc(C3C4CC(OC)CC43)nc2n1CC(=O)Nc1ccc(C(F)(F)F)cc1Cl` (centres unmarked) [Compound 191, N-(2-chloro-4-(trifluoromethyl)phenyl)-2-(5-ethyl-6-(4-(5-hydroxy-6-methylpyrimidine-4-carbonyl)piperazin-1-yl)-2-(3-methoxybicyclo[3.1.0]hexan-6-yl)-7-oxo-[1,2,4]triazolo[1,5-a]pyrimidin-4(7H)-yl)acetamide] gave an IC50 in test [1] of 3.7 nM. On to `CCc1c(C2=CCN(C(=O)c3ncnc(C)c3O)CCC2)c(=O)n2nc(C3=CCOCC3)nc2n1CC(=O)Nc1ccc(C(F)(F)F)cc1Cl` [Compound 190, N-(2-chloro-4-(trifluoromethyl)phenyl)-2-(2-(3,6-dihydro-2H-pyran-4-yl)-5-ethyl-6-(1-(5-hydroxy-6-methylpyrimidine-4-carbonyl)-2,5,6,7-tetrahydro-1H-azepin-4-yl)-7-oxo-[1,2,4]triazolo[1,5-a]pyrimidin-4(7H)-yl)acetamide], for which the half-maximal inhibitory concentration (IC50) in test [1] is 5.2 nM; in the test with SW48, 2240 nM.

What is called IC50 is the midpoint of a concentration-inhibition curve. Low values mean greater potency in that assay, high ones weaker potency in that assay.
